Data taken from article PMC7270141 (International Journal for Parasitology: Drugs and Drug …, 2020).
Like-named read-outs stand apart in the source and are kept apart here.

What was measured:
[1] = system: P. falciparum multidrug-resistant W2 strain; experiment: SYBR Green I fluorescence assay, asexual parasite proliferation, W2 strain; format: cell-based; conditions: for Resistance Index (RI) = IC50 for W2/IC50 for NF54: W2 vs NF54
[2] = Solubility, miniaturised shake-flask method; format: physicochemical; conditions: PBS pH 6.5, 24 h at 25 °C, HPLC-DAD, unit from abstract
[3] = Single-point metabolic stability, human liver microsomes; format: in vitro ADME
[4] = Single-point metabolic stability, mouse liver microsomes; format: in vitro ADME
[5] = Single-point metabolic stability, rat liver microsomes; format: in vitro ADME
P. berghei = conditions: murine P. berghei, after a single oral dose; ref François et al., 1997c; cited from earlier work
HepG2 cells = experiment: Lactate dehydrogenase; conditions: for Selectivity Index (SI) = EC50 for HepG2/IC50 for NF54: HepG2 vs NF54
Lactate dehydrogenase = conditions: human, Cytotoxicity EC50, HepG2, HepG2, LDH leakage, mean ± SEM, n ≥ 2
[6] = Plasmodium falciparum, W2, 96 h, read-out: Inhibition of parasite proliferation IC50, W2, multidrug-resistant W2, 96 h drug pressure, mean ± SEM, n ≥ 2

SMILES	Resistance Index (RI) = IC50 for W2/IC50 for NF54 [1]	IC50 ([1]; read-out: Inhibition of parasite proliferation IC50, W2, multidrug-resistant W2, 96 h drug pressure, mean ± SEM, n ≥ 2) [µM]	Solubility PBS (pH 6.5) [2] [μM]	% Remaining after 30 min, Human ([3]; 1 μM, human liver microsomes 0.4 mg/ml, 30 min, 37 °C) [%]	Microsomal clearance, Human ([3]; in vitro intrinsic clearance, human liver microsomes) [µL/min/mg]	% Remaining after 30 min, Mouse ([4]; 1 μM, mouse liver microsomes 0.4 mg/ml, 30 min, 37 °C) [%]	Microsomal clearance, Mouse ([4]; in vitro intrinsic clearance, mouse liver microsomes) [µL/min/mg]	% Remaining after 30 min, Rat ([5]; 1 μM, rat liver microsomes 0.4 mg/ml, 30 min, 37 °C) [%]	Microsomal clearance, Rat ([5]; in vitro intrinsic clearance, rat liver microsomes) [µL/min/mg]	Parasitaemia decreased (P. berghei) [%]	Selectivity Index (SI) = EC50 for HepG2/IC50 for NF54 (HepG2 cells)	EC50 (HepG2 cells; read-out: Cytotoxicity EC50, HepG2, HepG2, LDH leakage, mean ± SEM, n ≥ 2) [µM]	IC50 [1, 6] [µM]	remaining at 0.5 h, 1 μM ([3]; both, human, liver microsomes, % Remaining after 30 min, Human, 1 μM, human liver microsomes 0.4 mg/ml, 30 min, 37 °C) [%]	remaining at 0.5 h, 1 μM ([4]; male, CD1, mouse, liver microsomes, % Remaining after 30 min, Mouse, 1 μM, mouse liver microsomes 0.4 mg/ml, 30 min, 37 °C) [%]	remaining at 0.5 h, 1 μM ([5]; male, IGS, rat, liver microsomes, % Remaining after 30 min, Rat, 1 μM, rat liver microsomes 0.4 mg/ml, 30 min, 37 °C) [%]	EC50 (Lactate dehydrogenase) [µM]
COc1cc(C)c(-c2ccc(O)c3c2C[C@@H](C)N[C@@H]3C)c2cccc(O)c12 (single isomer, unassigned) [Dioncophylline C (2a), dioncophylline C]	2.9	0.112 ± 0.01	170	94	<11.6	95	<11.6	95	<11.6	99.6	552.6	21.2 ± 4	–	–	–	–	–
COc1cc(CO)c(-c2ccc3c(c2O)[C@@H](C)N[C@H](C)C3)c2cccc(O)c12 [Dioncopeltine A (5), dioncopeltine A]	38.1	–	–	–	–	–	–	–	–	–	4890.8	–	0.304 ± 0.06	98	< 7	> 99	39 ± 13.1
CCN(CC)CCCC(C)Nc1ccnc2cc(Cl)ccc12 (centres unmarked) [Chloroquine, reference compound]	29.5	–	–	–	–	–	–	–	–	–	2855.4	–	0.382 ± 0.09	–	–	–	37 ± 4.5
